# Measured values taken from patent US20070218004A1, “Method of Identifying Therapeutic Compounds Which Can Be Used for the Treatment and/or Prevention of Infections and Diseases Caused by Human Herpesviruses” (priority 2005, published 2007).
# Where two headings read alike, the source gives them in different places.
# What was measured:
# [1] = rats; cited from earlier work
# [2] = test system: herpes simplex virus type 1 (HSV-1) of the KOS strain; format: in vivo, mice of the C57B1/6 lineage
# Method: All the animals included in the experimental process were 14-week old female mice of the C57B1/6 lineage. Between two and three adult mice were used per analysis group and between 13 and 25 neonates, depending on the availability of animals. […] All the animals went through a quarantine period and were treated with strict precautions against contamination during inoculation and dissection. The animals were intraperitoneally infected with a dose 10^6 pfu of herpes simplex virus type 1 (HSV-1) of the KOS strain (provided by el Dr. L. Carrasco, Centro de Biología Molecular Severo Ochoa, Universidad Autónoma of Madrid). […] The first group of mice was not given any treatment. […] Therefore the antiviral concentration administered per dose and mouse was 0.25 mg (10 mg/kg per mouse, far from the toxicity limit of 80 mg/kg cited above), with a total daily dose of 0.75 mg/day.
# The dissected organs in the adult animals were the following: blood, ovaries, adrenal gland, spinal cord, brain, cerebellum and trigeminal ganglia. The entire brain was separated into three rough regions: midbrain, ventricles and cerebral cortex. In the neonates, the dissected organs were blood, spinal cord and encephalon. DNA was extracted using conventional methods (NucleoSpin®, Cat. K3053-2, ClonTech, USA). The viral load of the different organs was analyzed by means of quantitative PCR. […] Primers specific for the sequence of the viral polymerase (pol) gene were used to detect the virus (SEQ. ID. NO: 3 and SEQ. ID. NO: 4) (120 bp amplicon). The PCR conditions were one cycle of 95° C. for 10 minutes, followed by 45 cycles at 95° C. for 30 seconds, 55° C. (for β-actin) or 60° C. (for viral polymerase) for 30 seconds, and a last cycle of 72° C. for 40 seconds. The virus concentration range used for optimizing the quantitative PCR standard curve was expressed as plaque forming units (pfu). For calibrating the β-actin gene, nanograms were used as the unit of this endogenous gene. The identity of the amplified products was checked by analysis of the denaturation curves, by gel electrophoresis and restriction analysis.
# HSV-1 = assay: Acyclovir ad libitum in drink, vertical mother-progeny transmission model (Example 3); format: in vivo, mice; conditions: acyclovir in drinking water ad libitum, high dose (final daily dose 1.50 mg), from the day of the vaginal plug
# Method: Assuming that a mouse drinks about 3 ml a day, 2 working dilutions ([…] so that the final daily dose was 0.75 mg, and […] so that the final daily dose was 1.50 mg) were used.
# [3] = rabbits; cited from earlier work
# [4] = mice; cited from earlier work
structure (smiles),measurement,setting,value
Nc1nc2c(ncn2COCCO)c(=O)[nH]1 [acyclovir],teratogenicity / embryotoxicity,[1],non-teratogenic or embryotoxic
same,viral loads both in the mothers and in the progeny (quantitative PCR),"[2]; daily dose of 0.75 mg, both administration routes (oral and subcutaneous), FIG. 7",significant reduction
same,viral levels in all the analyzed organs of the descendants,"[2]; oral acyclovir administered to the mothers, 0.75 mg/day",almost complete elimination
same,mortality of neonates,"[2]; oral acyclovir to infected mothers, 0.25 mg per dose three times a day (0.75 mg/day), none of the 17 animals",no mortality
same,virus levels in blood and in the trigeminal ganglia of the mothers,"[2]; oral acyclovir, 0.75 mg/day",virtually undetectable
same,mortality rate of neonates,"[2]; subcutaneous acyclovir to infected mothers, 0.25 mg per dose three times a day (0.75 mg/day), from five days before crossbreeding until birth, 1 out of 25",4.0%
same,levels of the virus in all the analyzed organs of the mother and in the progeny's CNS,"[2]; subcutaneous acyclovir, 0.75 mg/day",considerably lower levels
same,survival of the animals,HSV-1,higher
same,teratogenicity / embryotoxicity,[3],non-teratogenic or embryotoxic
same,teratogenicity / embryotoxicity,[4],non-teratogenic or embryotoxic
